The compounds below were run against T1, human iNOS (Homo sapiens, UniProt P35228) (assay: DAN assay of nitric oxide production (hiNOS)). Details: enzyme expressed in HEK293 cells transiently transfected with human iNOS.
T1 construct: expressed in transfected cells; host or cells: HEK293
Format: cell-based
Outline: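 Human iNOS transiently expressed in HEK293 cells; NO production quantified as nitrite via 2,3-diaminonaphthalene reaction forming fluorescent naphthotriazole.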

T1 sequence (P35228 whole entry): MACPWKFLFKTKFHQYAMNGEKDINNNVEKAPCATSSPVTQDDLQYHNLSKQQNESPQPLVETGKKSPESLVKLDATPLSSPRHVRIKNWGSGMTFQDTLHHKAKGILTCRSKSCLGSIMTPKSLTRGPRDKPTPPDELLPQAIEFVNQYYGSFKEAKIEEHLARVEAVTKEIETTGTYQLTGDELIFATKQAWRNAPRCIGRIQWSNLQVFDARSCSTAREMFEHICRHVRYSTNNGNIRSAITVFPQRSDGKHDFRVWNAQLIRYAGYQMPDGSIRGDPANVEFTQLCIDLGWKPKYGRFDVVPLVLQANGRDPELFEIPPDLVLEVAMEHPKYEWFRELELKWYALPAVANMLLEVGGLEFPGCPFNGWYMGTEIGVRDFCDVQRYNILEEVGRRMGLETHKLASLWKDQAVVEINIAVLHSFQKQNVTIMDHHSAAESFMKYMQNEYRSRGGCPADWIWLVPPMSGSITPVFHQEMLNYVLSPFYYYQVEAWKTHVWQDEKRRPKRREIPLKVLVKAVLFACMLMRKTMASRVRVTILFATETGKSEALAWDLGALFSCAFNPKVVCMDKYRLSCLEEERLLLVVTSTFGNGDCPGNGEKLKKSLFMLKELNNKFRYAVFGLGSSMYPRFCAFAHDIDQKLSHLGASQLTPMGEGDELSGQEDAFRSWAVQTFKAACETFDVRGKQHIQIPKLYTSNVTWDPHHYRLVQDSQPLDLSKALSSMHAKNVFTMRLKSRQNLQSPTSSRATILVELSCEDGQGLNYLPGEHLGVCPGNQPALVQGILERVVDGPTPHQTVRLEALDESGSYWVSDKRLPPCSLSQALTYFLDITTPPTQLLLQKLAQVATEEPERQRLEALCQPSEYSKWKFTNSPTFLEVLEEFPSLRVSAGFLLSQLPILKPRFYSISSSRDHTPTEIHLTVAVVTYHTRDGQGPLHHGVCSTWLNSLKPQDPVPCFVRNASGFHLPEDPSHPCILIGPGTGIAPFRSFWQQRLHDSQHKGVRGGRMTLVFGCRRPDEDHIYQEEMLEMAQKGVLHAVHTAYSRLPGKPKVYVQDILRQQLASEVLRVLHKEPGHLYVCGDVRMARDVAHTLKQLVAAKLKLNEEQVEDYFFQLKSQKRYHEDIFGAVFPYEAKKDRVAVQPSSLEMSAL

`O=c1cc(Cn2c(-c3cccnc3)nc3ccccc32)c2ccc(F)c(F)c2[nH]1` [Example 120, 7,8-Difluoro-4-((2-(pyridin-3-yl)-1H-benzo[d]imidazol-1-yl)methyl)quinolin-2(1H)-one] and `O=c1cc(Cn2c(-c3cccnc3)nc3ccccc32)c2cccc(F)c2[nH]1` [Example 118, 8-Fluoro-4-((2-(pyridin-3-yl)-1H-benzo[d]imidazol-1-yl)methyl)quinolin-2(1H)-one] cannot be ordered by EC50: > 5 µM for the first, > 5 µM for the second.

`O=C(c1cccc(F)c1)N(Cc1cc(=O)[nH]c2c(F)cccc12)c1cccc(Cl)c1` [Example 55, N-(3-Chlorophenyl)-3-fluoro-N-((8-fluoro-2-oxo-1,2-dihydroquinolin-4-yl)methyl)benzamide] and `N#Cc1ccc(C(=O)N(Cc2cc(=O)[nH]c3c(F)cccc23)c2cccc(Cl)c2)cc1` [Example 66, N-(3-Chlorophenyl)-4-cyano-N-((8-fluoro-2-oxo-1,2-dihydroquinolin-4-yl)methyl)benzamide] cannot be ordered by EC50: > 5 µM for the first, > 5 µM for the second.

`O=C(c1ccco1)N(Cc1cc(=O)[nH]c2ccccc12)c1ccc(Cl)cc1` [Example 2, N-(4-Chlorophenyl)-N-((2-oxo-1,2-dihydroquinolin-4-yl)methyl)furan-2-carboxamide] and `COc1ccc(N(Cc2cc(=O)[nH]c3ccccc23)C(=O)c2ccco2)cc1` [Example 10, N-(4-Methoxyphenyl)-N-[(2-oxo-1,2-dihydroquinolin-4-yl)methyl]-2-furamide] cannot be ordered by EC50: > 5 µM for the first, ≤ 5 µM for the second.

`O=C(c1ccncc1)N(Cc1cc(=O)[nH]c2ccccc12)c1ccccc1` [Example 34, N-((2-Oxo-1,2-dihydroquinolin-4-yl)methyl)-N-phenylisonicotinamide] and `O=C(Cc1ccccc1)N(Cc1cc(=O)[nH]c2ccccc12)c1ccccc1` [Example 25, N-((2-Oxo-1,2-dihydroquinolin-4-yl)methyl)-N,2-diphenylacetamide] cannot be ordered by EC50: > 5 µM for the first, ≤ 5 µM for the second.

`Cc1nc(-c2cccc(Cl)c2)n(Cc2cc(=O)[nH]c3c(F)c(F)ccc23)c1C` [Example 257, 4-((2-(3-Chlorophenyl)-4,5-dimethyl-1H-imidazol-1-yl)methyl)-7,8-difluoroquinolin-2(1H)-one] and `Cc1noc(C)c1-c1nc2ccccc2n1Cc1cc(=O)[nH]c2c(F)c(F)ccc12` [Example 232, 4-((2-(3,5-Dimethylisoxazol-4-yl)-1H-benzo[d]imidazol-1-yl)methyl)-7,8-difluoroquinolin-2(1H)-one] cannot be ordered by EC50: ≤ 5 µM for the first, ≤ 5 µM for the second.

`O=c1cc(CN(Cc2ccco2)c2ccccc2)c2ccccc2[nH]1` [Example 22, 4-(((Furan-2-ylmethyl)(phenyl)amino)methyl)quinolin-2(1H)-one] and `CN(Cc1cc(=O)[nH]c2ccccc12)c1ccccc1` [Example 15, 4-[(Methyl-phenyl-amino)-methyl]-1H-quinolin-2-one] cannot be ordered by EC50: ≤ 5 µM for the first, ≤ 5 µM for the second.

`O=C(c1cc(=O)[nH]c2c(F)cccc12)N(Cc1cscn1)c1cccc(Cl)c1` [Example 105, N-(3-Chlorophenyl)-8-fluoro-2-oxo-N-(thiazol-4-ylmethyl)-1,2-dihydroquinoline-4-carboxamide] and `Cc1ccncc1C(=O)N(Cc1cc(=O)[nH]c2c(F)cccc12)c1cccc(Cl)c1` [Example 72, N-(3-Chlorophenyl)-N-((8-fluoro-2-oxo-1,2-dihydroquinolin-4-yl)methyl)-4-methylnicotinamide] cannot be ordered by EC50: > 5 µM for the first, > 5 µM for the second.

`Cc1ccc(N(Cc2cc(=O)[nH]c3c(F)c(F)ccc23)C(=O)c2scnc2C)cc1Cl` [Example 177, N-(3-Chloro4-methylphenyl)-N-((7,8-fluoro-2-oxo-1,2-dihydroquinolin-4-yl)methyl)-4-methylthiazole-5-carboxamide] and `COc1cccc(N(Cc2cc(=O)[nH]c3c(F)c(F)ccc23)C(=O)c2scnc2C)c1` [Example 180, N-(3-Methoxylphenyl)-N-((7,8-fluoro-2-oxo-1,2-dihydroquinolin-4-yl)methyl)-4-methylthiazole-5-carboxamide] cannot be ordered by EC50: ≤ 5 µM for the first, ≤ 5 µM for the second.

`Cc1cnccc1-c1nc2ccccc2n1Cc1cc(=O)[nH]c2c(F)c(F)ccc12` [Example 199, 7,8-Difluoro-4-((2-(3-methylpyridin-4-yl)-1H-benzo[d]imidazol-1-yl)methyl)quinolin-2(1H)-one] and `Cc1ccncc1-c1nc2ccccc2n1Cc1cc(=O)[nH]c2c(F)c(F)ccc12` [Example 121, 7,8-Difluoro-4-((2-(4-methylpyridin-3-yl)-1H-benzo[d]imidazol-1-yl)methyl)quinolin-2(1H)-one] cannot be ordered by EC50: ≤ 5 µM for the first, > 5 µM for the second.

`Cc1ncsc1C(=O)N(Cc1cc(=O)[nH]c2c(F)c(F)ccc12)C1CC1` [Example 86, N-Cyclopropyl-N-((7,8-fluoro-2-oxo-1,2-dihydroquinolin-4-yl)methyl)-4-methylthiazole-5-carboxamide] and `Cc1ncsc1C(=O)N(Cc1cc(=O)[nH]c2c(F)c(F)ccc12)c1cccc(C#N)c1` [Example 186, N-(3-Cyanophenyl)-N-((7,8-difluoro-2-oxo-1,2-dihydroquinolin-4-yl)methyl)-4-methylthiazole-5-carboxamide] cannot be ordered by EC50: > 5 µM for the first, ≤ 5 µM for the second.

`Cc1ncsc1C(=O)N(Cc1cc(=O)[nH]c2c(F)cccc12)c1cccc(C#N)c1` [Example 95, N-(3-Cyanophenyl)-N-((8-fluoro-2-oxo-1,2-dihydroquinolin-4-yl)methyl)-4-methylthiazole-5-carboxamide] and `Cc1ncsc1C(=O)N(Cc1cc(=O)[nH]c2c(Cl)cccc12)c1cccc(Cl)c1` [Example 49, N-((8-Chloro-2-oxo-1,2-dihydroquinolin-4-yl)methyl)-N-(3-chlorophenyl)-4-methylthiazole-5-carboxamide] cannot be ordered by EC50: ≤ 5 µM for the first, > 5 µM for the second.

`O=C(C1CC1)N(Cc1cc(=O)[nH]c2c(F)cccc12)c1cccc(Cl)c1` [Example 81, N-(3-Chlorophenyl)-N-((8-fluoro-2-oxo-1,2-dihydroquinolin-4-yl)methyl)cyclopropanecarboxamide] and `COc1ccccc1C(=O)N(Cc1cc(=O)[nH]c2c(F)cccc12)c1cccc(Cl)c1` [Example 60, N-(3-Chlorophenyl)-N-((8-fluoro-2-oxo-1,2-dihydroquinolin-4-yl)methyl)-2-methoxybenzamide] cannot be ordered by EC50: > 5 µM for the first, > 5 µM for the second.

`O=C(c1cccc2ccccc12)N(Cc1cc(=O)[nH]c2c(F)cccc12)c1cccc(Cl)c1` [Example 82, N-(3-Chlorophenyl)-N-((8-fluoro-2-oxo-1,2-dihydroquinolin-4-yl)methyl)-1-naphthamide] and `CN(C)c1ccccc1C(=O)N(Cc1cc(=O)[nH]c2c(F)cccc12)c1cccc(Cl)c1` [Example 74, N-(3-Chlorophenyl)-2-(dimethylamino)-N-((8-fluoro-2-oxo-1,2-dihydroquinolin-4-yl)methyl)benzamide] cannot be ordered by EC50: > 5 µM for the first, > 5 µM for the second.

`Cc1ccncc1C(=O)N(Cc1c(F)c(=O)[nH]c2c(F)c(F)ccc12)c1cccc(Cl)c1` [Example 116, N-(3-Chlorophenyl)-4-methyl-N-((3,7,8-trifluoro-2-oxo-1,2-dihydroquinolin-4-yl)methyl)nicotinamide] and `Cc1oncc1C(=O)N(Cc1cc2cccc(F)c2[nH]c1=O)c1cccc(Cl)c1` [Example 173, N-(3-Chlorophenyl)-N-((8-fluoro-2-oxo-1,2-dihydroquinolin-3-yl)methyl)-5-methylisoxazole-4-carboxamide] cannot be ordered by EC50: ≤ 5 µM for the first, > 5 µM for the second.

`O=c1cc(Cn2c(-c3ccccc3Cl)nc3ccccc32)c2ccc(F)c(F)c2[nH]1` [Example 241, 4-((2-(2-Chlorophenyl)-1H-benzo[d]imidazol-1-yl)methyl)-7,8-difluoroquinolin-2(1H)-one] and `Cc1ccccc1Cc1nc2ccccc2n1Cc1cc(=O)[nH]c2c(F)c(F)ccc12` [Example 216, 7,8-Difluoro-4-((2-(2-methylbenzyl)-1H-benzo[d]imidazol-1-yl)methyl)quinolin-2(1H)-one] cannot be ordered by EC50: ≤ 5 µM for the first, > 5 µM for the second.

`O=c1cc(Cn2c(Cn3ccnc3)nc3ccccc32)c2ccc(F)c(F)c2[nH]1` [Example 251, 4-((2-((1H-Imidazol-1-yl)methyl)-1H-benzo[d]imidazol-1-yl)methyl)-7,8-difluoroquinolin-2(1H)-one] and `CCC(C)Cc1nc2ccccc2n1Cc1cc(=O)[nH]c2c(F)c(F)ccc12` (racemic) [Example 220, 7,8-Difluoro-4-((2-(2-methylbutyl)-1H-benzo[d]imidazol-1-yl)methyl)quinolin-2(1H)-one] cannot be ordered by EC50: > 5 µM for the first, ≤ 5 µM for the second.

`CN(Cc1cc(=O)[nH]c2ccccc12)C(=O)c1ccco1` [Example 8, N-Methyl-N-[(2-oxo-1,2-dihydroquinolin-4-yl)methyl]-2-furamide] and `COc1ccc(C(=O)N(Cc2cc(=O)[nH]c3c(F)cccc23)c2cccc(Cl)c2)cc1` [Example 62, N-(3-Chlorophenyl)-N-((8-fluoro-2-oxo-1,2-dihydroquinolin-4-yl)methyl)-4-methoxybenzamide] cannot be ordered by EC50: ≤ 5 µM for the first, > 5 µM for the second.

`Cc1ccc2[nH]c(=O)c(CN(Cc3ccccc3)c3ccc(C#N)cn3)cc2c1` [Example 103, 6-(Benzyl((6-methyl-2-oxo-1,2-dihydroquinolin-3-yl)methyl)amino)nicotinonitrile] and `O=c1cc(Cn2c(-c3c(F)cccc3F)nc3ccccc32)c2ccc(F)c(F)c2[nH]1` [Example 247, 4-((2-(2,6-Difluorophenyl)-1H-benzo[d]imidazol-1-yl)methyl)-7,8-difluoroquinolin-2(1H)-one] cannot be ordered by EC50: > 5 µM for the first, > 5 µM for the second.

`CC1CCCCN1c1nc2ccccc2n1Cc1cc(=O)[nH]c2c(F)c(F)ccc12` (racemic) [Example 206, 7,8-Difluoro-4-((2-(2-methylpiperidin-1-yl)-1H-benzo[d]imidazol-1-yl)methyl)quinolin-2(1H)-one] and `O=c1cc(Cn2c(-c3ccncc3F)nc3ccccc32)c2ccc(F)c(F)c2[nH]1` [Example 244, 7,8-Difluoro-4-((2-(3-fluoropyridin-4-yl)-1H-benzo[d]imidazol-1-yl)methyl)quinolin-2(1H)-one] cannot be ordered by EC50: ≤ 5 µM for the first, ≤ 5 µM for the second.

With `CC(C)S(=O)(=O)N(Cc1cc(=O)[nH]c2c(F)c(F)ccc12)c1cccc(Cl)c1` [Example 188, N-(3-Chlorophenyl)-N-((7,8-difluoro-2-oxo-1,2-dihydroquinolin-4-yl)methyl)propane-2-sulfonamide] the EC50 was ≤ 5 µM.

— patent US20080139558A1, “QUINOLONES USEFUL AS INDUCIBLE NITRIC OXIDE SYNTHASE INHIBITORS” (KALYPSYS, INC., priority 2006, published 2008)
